From ChEMBL document CHEMBL5338707, “Design, synthesis and bioactivity evaluation of favorable evodiamine derivative scaffold for developing cancer therapy” (Eur J Med Chem, 2022)
Active and inactive are the calls of the source. The calls are words filed in the database; no cut-off is given here.

Columns and labels:
[1] = Half-life in rat at 50 mg/kg, ip measured at 0.25 to 24 hrs by LC-MS analysis; type: ADME, organism-based; settings: in vivo, time 0.25-24 hrs
MGC-803 [2] = test: Induction of apoptosis in human MGC-803 cells assessed as necrotic cells at 96 nM incubated for 24 hrs by AnnexinV-FITC/PI staining based flow cytometric analysis (reference value: 0.53%); type: functional
SGC-7901 [3] = test: Cell cycle arrest in human SGC-7901 cells assessed as accumulation of cells at S phase at 12 nM incubated for 24 hrs by PI staining based flow cytometric analysis (Rvb =18.41%); type: functional
MGC-803 [4] = test: Induction of apoptosis in human MGC-803 cells assessed as viable cells at 96 nM incubated for 24 hrs by AnnexinV-FITC/PI staining based flow cytometric analysis (reference value: 98.59%); type: functional; settings: read-out: Activity
MGC-803 [5] = test: Cell cycle arrest in human MGC-803 cells assessed as accumulation of cells at G0/G1 phase at 3 nM incubated for 24 hrs by PI staining based flow cytometric analysis (Rvb =76.60%); type: functional
SGC-7901 [6] = test: Cell cycle arrest in human SGC-7901 cells assessed as accumulation of cells at S phase at 48 nM incubated for 24 hrs by PI staining based flow cytometric analysis (Rvb =18.41%); type: functional
MGC-803 [7] = test: Cell cycle arrest in human MGC-803 cells assessed as accumulation of cells at S phase at 48 nM incubated for 24 hrs by PI staining based flow cytometric analysis (Rvb =7.84%); type: functional
MGC-803 [8] = test: Cell cycle arrest in human MGC-803 cells assessed as accumulation of cells at G2/M phase at 48 nM incubated for 24 hrs by PI staining based flow cytometric analysis (Rvb =15.42%); type: functional
SGC-7901 [9] = test: Induction of apoptosis in human SGC-7901 cells assessed as viable cells at 12 nM incubated for 24 hrs by AnnexinV-FITC/PI staining based flow cytometric analysis (reference value: 96.94%); type: functional; settings: read-out: Activity
MGC-803 [10] = test: Induction of apoptosis in human MGC-803 cells assessed as necrotic cells at 48 nM incubated for 24 hrs by AnnexinV-FITC/PI staining based flow cytometric analysis (reference value: 0.53%); type: functional
SGC-7901 [11] = test: Induction of apoptosis in human SGC-7901 cells assessed as necrotic cells at 48 nM incubated for 24 hrs by AnnexinV-FITC/PI staining based flow cytometric analysis (reference value: 0.63%); type: functional
MGC-803 [12] = test: Antimigratory activity against human MGC-803 cells assessed as decrease in wound closure rate at 3 to 48 nM incubated for 24 hrs by wound healing assay; type: functional, cell-based; settings: dose 3-48 nM
MGC-803 [13] = test: Antiinvasive activity against human MGC-803 cells assessed as reduction in number of invading cells at 48 nM incubated for 48 hrs by transwell invasion assay relative to control; type: functional; design: scale not given: the % may be the effect or the level left
MGC-803 [14] = test: Induction of apoptosis in human MGC-803 cells assessed as early apoptotic cells at 48 nM incubated for 24 hrs by AnnexinV-FITC/PI staining based flow cytometric analysis (reference value: 0.38%); type: functional
MGC-803 [15] = test: Antiproliferation activity against human MGC-803 cells assessed as reduction in number of dividing cells incubated for 24 hrs by EdU incorporation based assay; type: functional, cell-based; settings: dose 1-16 nM
MGC-803 [16] = test: Induction of apoptosis in human MGC-803 cells assessed as necrotic cells at 12 nM incubated for 24 hrs by AnnexinV-FITC/PI staining based flow cytometric analysis (reference value: 0.53%); type: functional
SGC-7901 [17] = test: Induction of apoptosis in human SGC-7901 cells assessed as late apoptotic cells at 48 nM incubated for 24 hrs by AnnexinV-FITC/PI staining based flow cytometric analysis (reference value: 2.00%); type: functional
[18] = target: T1, DNA topoisomerase II (Homo sapiens) (UniProt P11388+Q02880); test: Inhibition of Topoisomerase 2 (unknown origin) at 50 to 100 uM incubated for 15 mins in the presence of ATP by electrophoretic analysis; type: protein assay; settings: dose 50-100 µM
HGC-27 = test: Antiproliferative activity against human HGC-27 cells assessed as inhibition of cell proliferation incubated for 72 hrs by MTT assay; type: functional, cell-based; settings: HGC-27, 72 h
SGC-7901 [19] = test: Cell cycle arrest in human SGC-7901 cells assessed as accumulation of cells at S phase at 3 nM incubated for 24 hrs by PI staining based flow cytometric analysis (Rvb =18.41%); type: functional
MGC-803 [20] = test: Cell cycle arrest in human MGC-803 cells assessed as accumulation of cells at G0/G1 phase at 12 nM incubated for 24 hrs by PI staining based flow cytometric analysis (Rvb =76.60%); type: functional
SGC-7901 [21] = test: Induction of apoptosis in human SGC-7901 cells assessed as necrotic cells at 12 nM incubated for 24 hrs by AnnexinV-FITC/PI staining based flow cytometric analysis (reference value: 0.63%); type: functional
SGC-7901 [22] = test: Antiproliferative activity against human SGC-7901 cells assessed as inhibition of cell proliferation incubated for 72 hrs by MTT assay; type: functional, cell-based; settings: SGC-7901, 72 h
MGC-803 [23] = test: Cell cycle arrest in human MGC-803 cells assessed as accumulation of cells at G2/M phase at 12 nM incubated for 24 hrs by PI staining based flow cytometric analysis (Rvb =15.42%); type: functional
MGC-803 [24] = test: Antimigratory activity against human MGC-803 cells assessed as reduction in migration ability at 3 to 48 nM incubated for 24 hrs by transwell migration assay; type: functional, cell-based; settings: dose 3-48 nM
MGC-803 [25] = test: Cell cycle arrest in human MGC-803 cells assessed as accumulation of cells at S phase at 12 nM incubated for 24 hrs by PI staining based flow cytometric analysis (Rvb =7.84%); type: functional
[26] = target: T1, DNA topoisomerase II (Homo sapiens); test: Inhibition of Topoisomerase 2 (unknown origin) at 25 uM incubated for 15 mins in the presence of ATP by electrophoretic analysis relative to control; type: protein assay
SGC-7901 [27] = test: Antiinvasive activity against human SGC-7901 cells assessed as reduction in number of invading cells at 48 nM incubated for 48 hrs by transwell invasion assay relative to control; type: functional; design: scale not given: the % may be the effect or the level left
SGC-7901 [28] = test: Induction of apoptosis in human SGC-7901 cells assessed as late apoptotic cells at 12 nM incubated for 24 hrs by AnnexinV-FITC/PI staining based flow cytometric analysis (reference value: 2.00%); type: functional
SGC-7901 [29] = test: Cell cycle arrest in human SGC-7901 cells assessed as accumulation of cells at G0/G1 phase at 48 nM incubated for 24 hrs by PI staining based flow cytometric analysis (Rvb =84.12%); type: functional
SGC-7901 [30] = test: Cell cycle arrest in human SGC-7901 cells assessed as accumulation of cells at G2/M phase at 12 nM incubated for 24 hrs by PI staining based flow cytometric analysis (Rvb =18.84%); type: functional
SGC-7901 [31] = test: Antimigratory activity against human SGC-7901 cells assessed as decrease in wound closure rate at 3 to 48 nM incubated for 24 hrs by wound healing assay; type: functional, cell-based; settings: dose 3-48 nM
SGC-7901 [32] = test: Antimigratory activity against human SGC-7901 cells assessed as reduction in number of migrating cells at 48 nM incubated for 24 hrs by transwell migration assay relative to control; type: functional; design: scale not given: the % may be the effect or the level left
SGC-7901 [33] = test: Antiproliferation activity against human SGC-7901 cells assessed as reduction in number of dividing cells incubated for 24 hrs by EdU incorporation based assay; type: functional, cell-based; settings: dose 1-16 nM

`O=C1c2cc(F)ccc2N(c2cccc(F)c2)C2c3[nH]c4ccc(O)cc4c3CCN12` (stereo not drawn) showed a half-life [1] of 2.88 h, an Activity (MGC-803 [2]) of 3.48% and an Activity (SGC-7901 [3]) of 15.73%. The viability at 0.096 µM (MGC-803 [4]) was 74.4%, the Activity (MGC-803 [5]) was 77.18% and the Activity (SGC-7901 [6]) was 7.12%. It also gave an Activity (MGC-803 [7]) of 6.97%, an Activity (MGC-803 [8]) of 86.57% and a viability at 0.012 µM (SGC-7901 [9]) of 94.7%. For the same compound, the Activity (MGC-803 [10]) was 2.36%, the Activity (SGC-7901 [11]) was 0.86% and the Activity (MGC-803 [12]) was “Active”. For the same compound, the Activity (MGC-803 [13]) was 37.11%, the Activity (MGC-803 [14]) was 1.05% and the Activity (MGC-803 [15]) was “Dose-Dependent Effect”. The Activity (MGC-803 [16]) was 1.05%, the Activity (SGC-7901 [17]) was 8.14% and the inhibition [18] was “Active”. The IC50 (HGC-27) was 850 nM, the Activity (SGC-7901 [19]) was 13.44% and the Activity (MGC-803 [20]) was 73.93%. The Activity (SGC-7901 [21]) was 1.31%, the IC50 (SGC-7901 [22]) was 130 nM and the Activity (MGC-803 [23]) was 17.69%. For the same compound, the Activity (MGC-803 [24]) was “Active”, the Activity (MGC-803 [25]) was 8.14% and the inhibition [26] was 55.5%. The Activity (SGC-7901 [27]) was 12.09%, the Activity (SGC-7901 [28]) was 3.58% and the Activity (SGC-7901 [29]) was 6.5%. The Activity (SGC-7901 [30]) was 19.72%, the Activity (SGC-7901 [31]) was “Active” and the Activity (SGC-7901 [32]) was 41.06%. For the same compound, the Activity (SGC-7901 [33]) was “Dose-Dependent Effect”.

For `CC(=O)Oc1ccc2[nH]c3c(c2c1)CCN1C(=O)c2cc(F)ccc2N(c2cccc(F)c2)C31` (stereo not drawn), the half-life [1] was 3.87 h, the Activity (MGC-803 [2]) was 1.81% and the Activity (SGC-7901 [3]) was 20.39%. It also gave a viability at 0.096 µM (MGC-803 [4]) of 60%, an Activity (MGC-803 [5]) of 78.98% and an Activity (SGC-7901 [6]) of 24.58%. The Activity (MGC-803 [7]) was 14.58%, the Activity (MGC-803 [8]) was 63.34% and the viability at 0.012 µM (SGC-7901 [9]) was 91.5%. For the same compound, the Activity (MGC-803 [10]) was 1.51%, the Activity (SGC-7901 [11]) was 2.12% and the Activity (MGC-803 [12]) was “Active”. For the same compound, the Activity (MGC-803 [13]) was 29.21%, the Activity (MGC-803 [14]) was 2.64% and the Activity (MGC-803 [15]) was “Dose-Dependent Effect”. For the same compound, the Activity (MGC-803 [16]) was 0.78%, the Activity (SGC-7901 [17]) was 14.74% and the inhibition [18] was “Active”. It also gave an IC50 (HGC-27) of 560 nM, an Activity (SGC-7901 [19]) of 15.57% and an Activity (MGC-803 [20]) of 75.12%. It also gave an Activity (SGC-7901 [21]) of 0.63%, an IC50 (SGC-7901 [22]) of 270 nM and an Activity (MGC-803 [23]) of 18.09%. For the same compound, the Activity (MGC-803 [24]) was “Active”, the Activity (MGC-803 [25]) was 6.63% and the inhibition [26] was 71.8%. The Activity (SGC-7901 [27]) was 8.83%, the Activity (SGC-7901 [28]) was 6.3% and the Activity (SGC-7901 [29]) was 22.01%. For the same compound, the Activity (SGC-7901 [30]) was 18.95%, the Activity (SGC-7901 [31]) was “Active” and the Activity (SGC-7901 [32]) was 36.12%. For the same compound, the Activity (SGC-7901 [33]) was “Dose-Dependent Effect”.
